# Data taken from publication PMC5640650, “NatD promotes lung cancer progression by preventing histone H4 serine phosphorylation to activate Slug expression” (Nature Communications, 2017).
# Columns and labels:
# [1] = system: A549 cells; assay: Expression of EMT genes, A549 cells; format: cell-based, human; conditions: vs Scr
# Protocol: Cellular proteins were extracted by RIPA lysis buffer at high salt concentration (420 mM NaCl), and western blot analysis was performed in accordance with standard protocols. Scans of enhanced chemiluminescence (ECL) films showing uncropped blots are presented in Supplementary Fig. 10. […]
# Total RNA from tissue samples and cultured cells was extracted using TRIzol reagent (Invitrogen). cDNAs were synthesized with a HiScript 1st Strand cDNA Synthesis Kit (Vazyme Biotech, China). Quantitative RT-PCR was performed using a FastStart Universal SYBR Green Master (Roche) according to the manufacturer’s instructions in a Rotor-Gene 6000 (Corbett Research) in a final volume of 20 μl. […]
# Supplementary Figure 4. […] (a) Quantitative real-time PCR analysis of mRNA levels of NatD, CCND1, p21, p27, p57, p16, p18, p19, CHEK2, E2F1, CCND2, KRAS, PTEN, c-Myc, and PCNA in scrambled (Scr) and NatD knockdown (NatD-KD) H1299 cells normalized to GAPDH. […] (b) Quantitative real-time PCR analysis of mRNA levels of NatD and key EMT-related genes in Scr and NatD-KD A549 cells normalized to […]
# GAPDH served as a loading control. […] (bottom) Cell migration and invasion expressed as a percentage of control. […]
# [2] = system: LLC cells; assay: Orthotopic implantation in C57BL/6 mice, LLC cells; format: in vivo, murine; conditions: pleural cavity, 14 days, n = 5, vs Scr
# Protocol: All animal care and handling procedures were performed in accordance with the National Institutes of Health Guide for the Care and Use of Laboratory Animals, and were approved by the Institutional Review Board of Nanjing University (Nanjing, China). Female SCID mice and C57BL/6 mice (6–8 week old) were purchased from the Model Animal Research Center of Nanjing University (Nanjing, China), and were maintained under specific pathogen-free conditions at Nanjing University. The sample size was chosen with adequate power on the basis of the literature and our previous experience[46] and for each experiment it is indicated in the figure legend. Prior to carrying out the experiment, mice were randomly assigned to two different treatment groups (NatD-KD or Scr). For xenograft studies, 1 × 10^6 cells were resuspended in 100 µl PBS and injected into the lateral tail vein. Lung nodules and progression were monitored and quantified using the bioluminescence system (Caliper IVIS Lumina XR) or by counting under a dissecting microscope. […] Mice were killed at day 28 or day 30 to collect lungs, and lung nodules in serial sections were quantified microscopically. […] Lung nodules and progression were monitored and quantified using the bioluminescence system (Caliper IVIS Lumina XR). Mice were killed at day 14 or day 21 to collect lungs, and lung nodules in serial sections were quantified microscopically. […]
substance,measurement,setting,value
"NatD-KD2: Human NatD shRNA KD2: 5′-GGTTGAATGTCTCCATTGA-3′, lentiviral (shRNA lentiviral)",expression of E-cadherin,[1],increased the expression
same,"expression of Slug, N-cadherin, and Vimentin",[1],decreased the expression
same,"migration and invasion, orthotopic model",[2],significantly reduced
